Results from article PMC11257449 (bioRxiv, 2024).

Target: AmpC β-lactamase (Escherichia coli, UniProt P00811)
Assay type: biochemical
Conditions: for Km: AmpC substrate

Sequence of AmpC β-lactamase (P00811 20-377): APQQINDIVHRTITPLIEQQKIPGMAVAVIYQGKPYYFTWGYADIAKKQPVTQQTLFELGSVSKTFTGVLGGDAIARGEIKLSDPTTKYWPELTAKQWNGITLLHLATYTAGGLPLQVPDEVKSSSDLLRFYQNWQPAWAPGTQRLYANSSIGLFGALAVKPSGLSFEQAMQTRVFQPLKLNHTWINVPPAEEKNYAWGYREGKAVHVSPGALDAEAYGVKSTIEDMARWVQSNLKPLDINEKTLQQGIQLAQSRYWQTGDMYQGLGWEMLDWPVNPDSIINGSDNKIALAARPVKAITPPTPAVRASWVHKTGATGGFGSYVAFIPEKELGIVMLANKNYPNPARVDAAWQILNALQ

Q: How did the Km turn out when `O=C(Cc1cccs1)N[C@@H]1C(=O)N2C(C(=O)O)=C(CSc3ccc([N+](=O)[O-])c(C(=O)O)c3)CS[C@H]12` [CENTA] was run?
A: 27.6 µM

Q: With `O=S(=O)(Nc1ccc(F)c2cnccc12)c1cc(Cl)cc(Cl)c1O` [Z6615020275] as the compound, how does the Ki (Fig. 1 legend, crystallised inhibitors) read?
A: 2 µM

Q: With `O=C(Cc1cccs1)N[C@@H]1C(=O)N2C(C(=O)O)=C(/C=C/c3ccc([N+](=O)[O-])cc3[N+](=O)[O-])CS[C@H]12` [nitrocefin] as the compound, how does the Km read?
A: 180 µM
